Measured values as given in patent publication US20070060558A1 (PALUMED S.A., priority 2004, published 2007).
≈ marks a conversion by molar mass, not a printed value. Counter-ions that a name gives are not always drawn. Like-named read-outs stand apart in the source and are kept apart here.

What was measured:
[1] = system: Staphylococcus aureus MSSA CIP 4.83; test: Antibacterial activity (MIC/MBC); format: cell-based; conditions: Staphylococcus aureus
[2] = system: S. aureus MRSA clinical isolate; test: Antibacterial activity (MIC); format: cell-based, Staphylococcus aureus; conditions: Staphylococcus aureus
S. aureus MsrA PUL 5054 = test: Antibacterial activity (MIC); format: cell-based; conditions: Staphylococcus aureus
[3] = system: S. aureus VISA CIP 106757; test: Antibacterial activity (MIC); format: cell-based; conditions: Staphylococcus aureus
[4] = system: S. epidermidis MSCNS (D10); test: Antibacterial activity (MIC); format: cell-based; conditions: Staphylococcus epidermidis
[5] = system: S. epidermidis MRCNS (E93); test: Antibacterial activity (MIC); format: cell-based; conditions: Staphylococcus epidermidis
[6] = system: S. pneumoniae PSSP CQI 201; test: Antibacterial activity (MIC); format: cell-based, Streptococcus pneumoniae; conditions: Streptococcus pneumoniae
[7] = system: S. pneumoniae PRSP (CQR 162); test: Antibacterial activity (MIC); format: cell-based; conditions: Streptococcus pneumoniae
S. pyogenes CIP 56.41T = test: Antibacterial activity (MIC/MBC); format: cell-based, Streptococcus pyogenes; conditions: Streptococcus pyogenes, CIP56
[8] = system: E. faecium VRE VanA CIP107387; test: Antibacterial activity (MIC); format: cell-based; conditions: Enterococcus faecium
[9] = system: E. faecalis VRE VanA CIP106996; test: Antibacterial activity (MIC); format: cell-based; conditions: Enterococcus faecalis
[10] = system: E. faecalis VRE VanB CIP106998; test: Antibacterial activity (MIC); format: cell-based; conditions: Enterococcus faecalis
C. difficile CIP 104282 = test: Antibacterial activity (MIC); format: cell-based, Clostridium difficile; conditions: Clostridioides difficile, CIP104282
[11] = system: Staphylococcus aureus MSSA 53.154; test: Murine experimental septicaemia, in vivo efficacy; parameters: species or system mice; conditions: sc
Experimental: Experimental septicaemia was induced in mice as follows. Briefly, male Swiss OF1 mice (IFFA CREDO-Charles River) weighing 18 to 20 grams were infected intraperitoneally with 0.5 mL of a bacterial suspension containing 8.5×10^7 cfu of Staphylococcus aureus MSSA 53.154 (Institut Pasteur). The hybrid molecules were administered subcutaneously at 1 and 6 h post infection. Control and treatment groups at each dose were composed of seven mice. All the infected but untreated control mice died within 9 days. The 50% effective dose (ED50) values were calculated by a computerized program (GraphPad) from the survival rates on day 9 after infection.

[12] = system: Human lung fibroblast cells (ATCC CCL-171); test: Cytotoxicity (MTT) assay; conditions: human, 18 hr
Experimental: Cellular toxicity was measured by a colorimetric assay that makes use of the tetrazolium salt, MTT. Human lung fibroblast cells (ATCC CCL-171) were plated in 96-well plates at 10^4 cells per well and incubated under 5% CO2 at 37° C. for 24 hr to allow adherence of cells to the plate. Test compounds were prepared as a stock solution at 1 mg/mL in 1% DMSO/water and diluted with water for the serial dilutions (500-7.8 μg/mL). Cells underwent a 18 hr treatment under 5% CO2 at 37° C. with experimental drugs. Corresponding controls received either no drug treatment or treatment with SDS (sodium dodecyl sulfate). The optical density of each sample was read on a microplate spectrophotometer reader at 600 nm and cell survival was expressed as a fraction of that of untreated controls. A drug is said cytotoxic when this fraction is ≦−30%

S. aureus NorA 1199B = test: Antibacterial activity (MIC); format: cell-based, Staphylococcus aureus
S. pneumoniae PRSP = test: Antibacterial activity (MIC), Table VII; format: cell-based; conditions: Streptococcus pneumoniae
[13] = system: E. faecalis VRE CIP 104676; test: Antibacterial activity (MIC/MBC); format: cell-based, Enterococcus faecalis; conditions: Enterococcus faecalis
H. influenzae CIP 102514 = test: Antibacterial activity (MIC/MBC); format: cell-based, Haemophilus influenzae; conditions: Haemophilus influenzae, CIP102514
E. coli CIP 54127 = test: Antibacterial activity (MIC); format: cell-based; conditions: Escherichia coli, CIP54127
P. aeruginosa CIP 103467 = test: Antibacterial activity (MIC); format: cell-based; conditions: Pseudomonas aeruginosa, CIP103467
B. subtilis CIP 5262 = test: Antibacterial activity (MIC); format: cell-based; conditions: Bacillus subtilis, CIP5262
[14] = system: B. thuringiensis CIP 104676; test: Antibacterial activity (MIC); format: cell-based; conditions: Bacillus thuringiensis, CIP104676
[15] = S. aureus MSSA CIP 4.83, read-out: MIC
[16] = S. aureus MRSA clinical isolate, read-out: MIC
[17] = S. aureus VISA CIP 106757, read-out: MIC
[18] = S. epidermidis MSCNS (D10), read-out: MIC
[19] = S. epidermidis MRCNS (E93), read-out: MIC
[20] = S. pneumoniae PSSP CQI 201, read-out: MIC
[21] = S. pneumoniae PRSP (CQR 162), read-out: MIC
[22] = S. pyogenes CIP 56.41T, read-out: MIC
[23] = E. faecium VRE VanA CIP107387, read-out: MIC
[24] = E. faecalis VRE VanA CIP106996, read-out: MIC
[25] = E. faecalis VRE VanB CIP106998, read-out: MIC
[26] = C. difficile CIP 104282, read-out: MIC
[27] = mice, subcutaneously at 1 and 6 h post infection, survival on day 9, hybrid molecules formulated in water as their bis(hydrochloride) salt, read-out: ED50
[28] = Staphylococcus aureus, NORA1199B
[29] = S. pneumoniae PRSP (Table VII), read-out: MIC
[30] = E. faecalis VRE CIP 104676, read-out: MIC
[31] = H. influenzae CIP 102514, read-out: MIC
[32] = E. coli CIP 54127, read-out: MIC
[33] = P. aeruginosa CIP 103467, read-out: MIC
[34] = B. subtilis CIP 5262, read-out: MIC
[35] = B. thuringiensis CIP 104676, read-out: MIC

Row | Compound | MIC [1, 15] [mg/L] | MIC [2, 16] [mg/L] | MIC (S. aureus MsrA PUL 5054) [mg/L] | MIC [3, 17] [mg/L] | MIC [4, 18] [mg/L] | MIC [5, 19] [mg/L] | MIC [6, 20] [mg/L] | MIC [7, 21] [mg/L] | MIC (S. pyogenes CIP 56.41T; [22]) [mg/L] | MIC [8, 23] [mg/L] | MIC [9, 24] [mg/L] | MIC [10, 25] [mg/L] | MIC (C. difficile CIP 104282; [26]) [mg/L] | ED50 [11, 27] [mg/kg] | % of survival cells compared to the untreated controls ([12]; 7.8 μg/mL) [%] | % of survival cells compared to the untreated controls ([12]; 15.6 μg/mL) [%] | % of survival cells compared to the untreated controls ([12]; 31.2 μg/mL) [%] | % of survival cells compared to the untreated controls ([12]; 62.5 μg/mL) [%] | % of survival cells compared to the untreated controls ([12]; 125 μg/mL) [%] | MIC (S. aureus NorA 1199B; [28]) [mg/L] | also measured
1 | CN[C@H](CC(C)C)C(=O)N[C@H]1C(=O)N[C@@H](CC(N)=O)C(=O)N[C@H]2C(=O)N[C@H]3C(=O)N[C@H](C(=O)N[C@H](C(=O)O)c4cc(O)cc(O)c4-c4cc3ccc4O)[C@H](O)c3ccc(c(Cl)c3)Oc3cc2cc(c3OC2OC(CO)C(O)C(O)C2OC2CC(C)(NCc3ccc(OCCNc4ccnc5cc(Cl)ccc45)cc3)C(O)C(C)O2)Oc2ccc(cc2Cl)[C@H]1O (stereo partly shown) [PA 1157, N-4-{4-[2-(7-Chloroquinolin-4-ylamino)ethoxy]-benzyl}-vancomycin] | 0.012 (≈ 0.00682 µM) | 0.2 (≈ 0.114 µM) | < 0.045 | 0.1 (≈ 0.0568 µM) | 0.05 (≈ 0.0284 µM) | 0.003 (≈ 0.0017 µM) | 0.003 (≈ 0.0017 µM) | 0.003 (≈ 0.0017 µM) | 0.125 (≈ 0.071 µM) | 6.25 (≈ 3.55 µM) | 3.12 (≈ 1.78 µM) | 6.25 (≈ 3.55 µM) | 0.078 (≈ 0.0443 µM) | 0.09 | −22.0 | −22.5 | −24.2 | −24.9 | −26.9 | – | % of survival cells compared to the untreated controls ([12]; 250 μg/mL): −26.2%; % of survival cells compared to the untreated controls ([12]; 500 μg/mL): −29.2%
2 | O=C(O)c1cn(C2CC2)c2cc(N3CCNCC3)c(F)cc2c1=O [Ciprofloxacin, reference compound] | 0.312 (≈ 0.942 µM) | – | – | – | – | – | – | – | – | – | – | – | – | – | – | – | – | – | – | > 50 | MIC (S. aureus NorA 1199B; S. aureus NorA 1199B (quinolone-resistant by efflux)): >50 mg/L; MIC (S. pneumoniae PRSP; [29]): 1.25 mg/L (≈ 3.77 µM); MIC [13, 30]: 1.25 mg/L (≈ 3.77 µM); MIC (H. influenzae CIP 102514; [31]): 0.1 mg/L (≈ 0.302 µM); MIC (E. coli CIP 54127; [32]): 0.01 mg/L (≈ 0.0302 µM); MIC (P. aeruginosa CIP 103467; [33]): 0.156 mg/L (≈ 0.471 µM); MIC (B. subtilis CIP 5262; [34]): 0.04 mg/L (≈ 0.121 µM); MIC [14, 35]: 0.156 mg/L (≈ 0.471 µM)
3 | CN[C@H](CC(C)C)C(=O)N[C@H]1C(=O)N[C@@H](CC(N)=O)C(=O)N[C@H]2C(=O)N[C@H]3C(=O)N[C@H](C(=O)N[C@H](C(=O)O)c4cc(O)cc(O)c4-c4cc3ccc4O)[C@H](O)c3ccc(c(Cl)c3)Oc3cc2cc(c3OC2OC(CO)C(O)C(O)C2OC2CC(C)(NCCCCNc3ccnc4cc(Cl)ccc34)C(O)C(C)O2)Oc2ccc(cc2Cl)[C@H]1O (stereo partly shown) [PA 1158, N-4-[4(7-Chloroquinolin-4-ylamino)-butyl]-vancomycin] | 0.1 (≈ 0.0595 µM) | 0.2 (≈ 0.119 µM) | < 0.045 | 0.39 (≈ 0.232 µM) | 0.1 (≈ 0.0595 µM) | 0.05 (≈ 0.0297 µM) | 0.012 (≈ 0.00713 µM) | 0.025 (≈ 0.0149 µM) | 0.062 (≈ 0.0369 µM) | 25 (≈ 14.9 µM) | 6.25 (≈ 3.72 µM) | 6.25 (≈ 3.72 µM) | 0.078 (≈ 0.0464 µM) | 0.26 | −11.8 | −13.2 | −10.7 | −16.9 | −16.9 | – | % of survival cells compared to the untreated controls ([12]; 250 μg/mL): −19.8%; % of survival cells compared to the untreated controls ([12]; 500 μg/mL): −18.4%
4 | O=C(O)c1cn(C2CC2)c2cc(N3CCN(c4ccnc5cc(Cl)ccc45)CC3)c(F)cc2c1=O [hydrochloride] | – | – | – | – | – | – | – | – | – | – | – | – | – | – | – | – | – | – | – | 0.18 | MIC [1]: 0.156 mg/L; fold more active than the sub-structure from which it comes (S. aureus NorA 1199B; S. aureus NorA, versus ciprofloxacin): 280; MIC (S. pneumoniae PRSP; PRSP): 0.078 mg/L; MIC [13]: 0.078 mg/L; MIC (H. influenzae CIP 102514): 0.312 mg/L; MIC (E. coli CIP 54127): 0.612 mg/L; MIC (P. aeruginosa CIP 103467): 5 mg/L; MIC (B. subtilis CIP 5262): < 0.001 mg/L; MIC [14]: 0.156 mg/L
5 | Cl.O=C(O)c1cn(C2CC2)c2cc(N3CCN(CCNc4ccnc5cc(Cl)ccc45)CC3)c(F)cc2c1=O [PA 1127, 7-{4-[2-(7-Chloroquinolin-4-ylamino)-ethyl]-piperazin-1-yl}-1-cyclopropyl-6-fluoro-4-oxo-1,4-dihydroquinoline-3-carboxylic acid hydrochloride] | 1.25 | – | – | – | – | – | – | – | – | – | – | – | – | – | – | – | – | – | – | 3 | MIC (S. pneumoniae PRSP; [29]): 2.5 mg/L; MIC [13, 30]: 1.25 mg/L; MIC (H. influenzae CIP 102514; [31]): 0.156 mg/L; MIC (E. coli CIP 54127; [32]): 0.156 mg/L; MIC (P. aeruginosa CIP 103467; [33]): 5 mg/L; MIC (B. subtilis CIP 5262; [34]): 0.312 mg/L; MIC [14, 35]: 0.625 mg/L
6 | CN[C@H](CC(C)C)C(=O)N[C@H]1C(=O)N[C@@H](CC(N)=O)C(=O)N[C@H]2C(=O)N[C@H]3C(=O)N[C@H](C(=O)N[C@H](C(=O)O)c4cc(O)cc(O)c4-c4cc3ccc4O)[C@H](O)c3ccc(c(Cl)c3)Oc3cc2cc(c3O[C@@H]2O[C@H](CO)[C@@H](O)[C@H](O)[C@H]2O[C@H]2C[C@](C)(N)[C@H](O)[C@H](C)O2)Oc2ccc(cc2Cl)[C@H]1O [Vancomycin, reference compound] | – | – | 0.75 (≈ 0.518 µM) | – | – | – | – | – | – | – | – | – | – | – | – | – | – | – | – | – | MIC [1]: 0.78 mg/L (≈ 0.538 µM); MIC ([2]; MRSA): 0.78 mg/L (≈ 0.538 µM); MIC [3]: 1.56 mg/L (≈ 1.08 µM); MIC [4]: 1.56 mg/L (≈ 1.08 µM); MIC [5]: 0.78 mg/L (≈ 0.538 µM); MIC [6]: 0.2 mg/L (≈ 0.138 µM); MIC ([7]; PRSP): 0.39 mg/L (≈ 0.269 µM); MIC (S. pyogenes CIP 56.41T): 0.2 mg/L (≈ 0.138 µM); MIC [8]: > 50 mg/L; MIC [9]: > 50 mg/L; MIC [10]: 25 mg/L (≈ 17.3 µM); MIC (C. difficile CIP 104282): 0.31 mg/L (≈ 0.214 µM); ED50 [11]: 0.16 mg/kg
